Experimental data published in patent US6211214A, “Biphenyl ether oxazolines and their use as pest-control agents” (Bayer Aktiengesellschaft, priority 1995, dated 2001).
Where two headings read alike, the source gives them in different places.

Assay: log p (partition coefficient octanol/water, determined experimentally from reversed phase HPLC)
Type: physicochemical
Settings: for chromatographic logP: reversed phase hplc
Source text: [log p=logarithm of the partition coefficient p of the substance between the solvents octanol and water, determined experimentally from reversed phase HPLC]

Row | Compound | chromatographic logP | chromatographic logP (A isomer) | chromatographic logP (B isomer) | further results
1 | CCOC(=O)C(C)Oc1ccc(-c2ccc(C3COC(c4c(F)cccc4F)=N3)cc2)cc1 (stereo not drawn) [Example 3, 2-(2,6-difluorophenyl)-4-[4'-(1-ethoxycarbonyl-eth-1-yl-oxy)-biphenyl-4-yl]-1,3-oxazoline] | 4.12 |  |  | 
2 | CCOC(=O)C(CC)Oc1ccc(-c2ccc(C3COC(c4c(F)cccc4F)=N3)cc2)cc1 (stereo not drawn) [Example 11] | 4.53 |  |  | 
3 | CCOC(=O)C(C)Oc1ccc(-c2ccc(C3COC(c4c(F)cccc4F)=N3)cc2)cc1 (stereo not drawn) [Example 12] |  |  |  | log p: 3.80
4 | CCN(CC)C(=O)COc1ccc(-c2ccc(C3COC(c4c(F)cccc4F)=N3)cc2)cc1 (stereo not drawn) [Example 15] | 3.35 |  |  | 
5 | CC(C)C(C#N)Oc1ccc(-c2ccc(C3COC(c4c(F)cccc4F)=N3)cc2)cc1 (stereo not drawn) [Example 17] | 4.45 |  |  | 
6 | CCC(Oc1ccc(-c2ccc(C3COC(c4c(F)cccc4F)=N3)cc2)cc1)C(=O)OC (stereo not drawn) [Example 19] | 4.18 |  |  | 
7 | CON=C(C)C(C)Oc1ccc(-c2ccc(C3COC(c4c(F)cccc4F)=N3)cc2)cc1 (stereo not drawn) [Example 23] |  | 4.62 | 4.71 | 
8 | CO/N=C(/COc1ccc(-c2ccc(C3COC(c4c(F)cccc4F)=N3)cc2)cc1)C1CC1 (stereo not drawn) [Example 24] |  |  |  | chromatographic logP (E isomer): 4.9
9 | CCON=C(C)COc1ccc(-c2ccc(C3COC(c4c(F)cccc4F)=N3)cc2)cc1 (stereo not drawn) [Example 25] |  |  | 4.76 | 
10 | CON=C(COc1ccc(-c2ccc(C3COC(c4c(F)cccc4F)=N3)cc2)cc1)C1CC1 (stereo not drawn) [Example 26] |  | 4.9 | 4.56 | 
11 | CON=C(COc1ccc(-c2ccc(C3COC(c4c(F)cccc4F)=N3)cc2)cc1)c1ccccc1 (stereo not drawn) [Example 27] |  | 4.74 |  | 
12 | CON(C)C(=O)COc1ccc(-c2ccc(C3COC(c4c(F)cccc4F)=N3)cc2)cc1 (stereo not drawn) [Example 34] | 3.07 |  |  | 
13 | CCOC(COc1ccc(-c2ccc(C3COC(c4c(F)cccc4F)=N3)cc2)cc1)OCC (stereo not drawn) [Example 43] | 4.44 |  |  | 
14 | C=CCN(CC=C)C(=O)COc1ccc(-c2ccc(C3COC(c4c(F)cccc4F)=N3)cc2)cc1 (stereo not drawn) [Example 47] | 3.76 |  |  | 
15 | CCON=C(C)C(C)Oc1ccc(-c2ccc(C3COC(c4c(F)cccc4F)=N3)cc2)cc1 (stereo not drawn) [Example 48] |  | 5.02 | 5.13 | 
16 | O=C(COc1ccc(-c2ccc(C3COC(c4ccccc4Cl)=N3)cc2)cc1)c1ccccc1 (stereo not drawn) [Example 49] | 4.38 |  |  | 
17 | CON=C(COc1ccc(-c2ccc(C3COC(c4ccccc4Cl)=N3)cc2)cc1)c1ccccc1 (stereo not drawn) [Example 52] | 5.4 |  |  | 
18 | O=C(COc1ccc(-c2ccc(C3COC(c4c(F)cccc4F)=N3)cc2)cc1)C1(Cl)CC1 (stereo not drawn) [Example 54] | 4.04 |  |  | 
19 | CON=C(COc1ccc(-c2ccc(C3COC(c4c(F)cccc4F)=N3)cc2)cc1)C1(Cl)CC1 (stereo not drawn) [Example 55] |  | 5.09 | 4.78 | 
20 | CCON=C(COc1ccc(-c2ccc(C3COC(c4c(F)cccc4F)=N3)cc2)cc1)C1CC1 (stereo not drawn) [Example 56] |  | 5.28 | 4.92 | 
21 | CCON=C(COc1ccc(-c2ccc(C3COC(c4c(F)cccc4F)=N3)cc2)cc1)C1(Cl)CC1 (stereo not drawn) [Example 57] |  | 5.49 | 4.85 | 
22 | CCON=C(C)C(C)Oc1ccc(-c2ccc(C3COC(c4ccccc4Cl)=N3)cc2)cc1 (stereo not drawn) [Example 59] |  | 5.44 | 5.56 | 
23 | CCCCC(Oc1ccc(-c2ccc(C3COC(c4c(F)cccc4F)=N3)cc2)cc1)C(=O)OCC (stereo not drawn) [Example 61] | 5.24 |  |  | 
24 | CCON=C(C)C(C)Oc1ccc(-c2ccc(C3COC(c4c(F)cccc4Cl)=N3)cc2)cc1 (stereo not drawn) [Example 62] |  | 5.31 | 5.42 | 
25 | CC(=NO)C(C)Oc1ccc(-c2ccc(C3COC(c4c(F)cccc4F)=N3)cc2)cc1 (stereo not drawn) [Example 64] |  | 3.48 | 3.54 | 
26 | CCON=C(COc1ccc(-c2ccc(C3COC(c4c(F)cccc4F)=N3)cc2)cc1)C1CC1 (stereo not drawn) [Example 67] |  |  |  | log p (A isomer): 4.72; log p (B isomer): 4.61

Now from value to molecule, other results behind:

Row | chromatographic logP | chromatographic logP (A isomer) | chromatographic logP (B isomer) | Compound | further results
27 | 5.12 |  |  | CCON=C(C)C(C)Oc1ccc(-c2ccc(C3COC(c4c(F)cccc4F)=N3)cc2)cc1 (single isomer, unassigned) [Example 70] | 
28 | 5.4 |  |  | CCON=C(C)C(C)Oc1ccc(-c2ccc(C3COC(c4ccccc4Cl)=N3)cc2)cc1 (single isomer, unassigned) [Example 85] | 
29 |  | 4.98 | 4.9 | CCON=C(CC)COc1ccc(-c2ccc(C3COC(c4c(F)cccc4F)=N3)cc2)cc1 (stereo not drawn) [Example 66] | 
30 | 4.55 |  |  | CC(C)C(C)(C)C(=O)COc1ccc(-c2ccc(C3COC(c4c(F)cccc4F)=N3)cc2)cc1 (stereo not drawn) [Example 68] | 
31 | 4.47 |  |  | CC(=NOC(C)C)C(C)Oc1ccc(-c2ccc(C3COC(c4c(F)cccc4F)=N3)cc2)cc1 (stereo not drawn) [Example 69] | 
32 | 4.55 |  |  | CC(C)(C(=O)COc1ccc(-c2ccc(C3COC(c4c(F)cccc4F)=N3)cc2)cc1)C(Cl)Cl (stereo not drawn) [Example 71] | 
33 |  | 5.72 | 5.49 | CCON=C(COc1ccc(-c2ccc(C3COC(c4c(F)cccc4F)=N3)cc2)cc1)C(C)C (stereo not drawn) [Example 78] | 
34 | 5.95 |  |  | CCON=C(COc1ccc(-c2ccc(C3COC(c4c(F)cccc4F)=N3)cc2)cc1)C(C)(C)C (stereo not drawn) [Example 79] | 
35 |  | 5.1 | 5.17 | CC(COc1ccc(-c2ccc(C3COC(c4c(F)cccc4F)=N3)cc2)cc1)=NOC(C)C (stereo not drawn) [Example 80] | 
36 | 4.98 |  |  | CCON=C(C)COc1ccc(-c2ccc(C3COC(c4c(F)cccc4Cl)=N3)cc2)cc1 (stereo not drawn) [Example 81] | 
37 |  | 5.15 |  | CC(COc1ccc(-c2ccc(C3COC(c4c(F)cccc4F)=N3)cc2)cc1)=NOCc1ccccc1 (stereo not drawn) [Example 82] | 
38 |  | 5.49 |  | CCON=C(C)COc1ccc(-c2ccc(C3COC(c4c(F)cccc4F)=N3)cc2)cc1 (stereo not drawn) [Example 83] | log p (B isomer): 5.56
39 |  | 4.79 | 4.7 | CON=C(C)COc1ccc(-c2ccc(C3COC(c4c(F)cccc4F)=N3)cc2)cc1Cl (stereo not drawn) [Example 86] | 
40 |  | 5.39 | 5.19 | CCON=C(C)COc1ccc(-c2ccc(C3COC(c4c(F)cccc4F)=N3)cc2)cc1Cl (stereo not drawn) [Example 87] | 
41 |  | 5.04 | 5.13 | C=CCON=C(C)C(C)Oc1ccc(-c2ccc(C3COC(c4c(F)cccc4F)=N3)cc2)cc1 (stereo not drawn) [Example 88] | 
42 |  | 4.78 | 4.72 | C=CCON=C(C)COc1ccc(-c2ccc(C3COC(c4c(F)cccc4F)=N3)cc2)cc1 (stereo not drawn) [Example 89] | 
43 | 4.87 |  |  | CCCC(C#N)Oc1ccc(-c2ccc(C3COC(c4c(F)cccc4F)=N3)cc2)cc1Cl (stereo not drawn) [Example 91] | 
44 | 4.28 |  |  | O=C(COc1ccc(-c2ccc(C3COC(c4c(F)cccc4Cl)=N3)cc2)cc1)c1ccccc1 (stereo not drawn) [Example 93] | 
45 | 5.25 |  |  | CON=C(COc1ccc(-c2ccc(C3COC(c4c(F)cccc4Cl)=N3)cc2)cc1)c1ccccc1 (stereo not drawn) [Example 94] | 
46 | 4.06 |  |  | CC(C#N)Oc1ccc(-c2ccc(C3COC(c4c(F)cccc4F)=N3)cc2)cc1Cl (stereo not drawn) [Example 95] | 
47 | 5.12 |  |  | CCOC(CCOc1ccc(-c2ccc(C3COC(c4c(F)cccc4F)=N3)cc2)cc1Cl)OCC (stereo not drawn) [Example 97] | 
48 | 3.77 |  |  | CC1(COc2ccc(-c3ccc(C4COC(c5c(F)cccc5F)=N4)cc3)cc2)OCCO1 (stereo not drawn) [Example 98] | 
